Measured values taken from ChEMBL document CHEMBL1201862, “PubChem BioAssay data set” (2004).
Where a name gives a salt, the structure may show the parent alone. Values belong to the compound of their own block, whether it stands above or below them. Activity calls are given as the source filed them.

How the values were obtained:
[1] = A549 cell cytotoxicity, dose response, cytotoxicity control, cherry-picks, 26 µM top dose (AID 1053119); assay type: functional, cell-based
[2] = inhibitors of fibronectin matrix deposition, dose response, AH1F cells, Alexa488-FN fluorescence, cherry-picks (AID 1035475); assay type: functional, cell-based
[3] = Inhibition of T. cruzi Tulahuen strain amastigotes in L-6 muscle cells Measured in Cell-Based and Microorganism Combination System Using Plate Reader - 2138-03_Inhibitor_Dose_CherryPick_Activity.; assay type: functional; conditions: Rattus norvegicus, L6
[4] = cytotoxicity in L-6 rat myocytes, dose response, cytotoxicity control, cell-based, plate reader, cherry-pick (AID 651896); assay type: functional
[5] = Inhibition of Plasmodium falciparum NF54 Measured in Cell-Based System Using Plate Reader - 2138-11_Inhibitor_Dose_CherryPick_Activity.; assay type: functional
[6] = L. donovani amastigote growth inhibition, dose response, axenic amastigotes, plate reader, cherry pick (AID 651891); assay type: functional, cell-based; conditions: Leishmania donovani
[7] = NIH/3T3 fibroblast cytotoxicity, dose response, cytotoxicity control for T. cruzi growth inhibitor project, cell-based, cherry-pick samples, set 2 (AID 651817); assay type: functional; conditions: NIH3T3
[8] = intracellular Trypanosoma cruzi inhibitors in host cells – cell-based, plate reader, cherry-pick samples, set 3, dose response (AID 651818); assay type: functional;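 also: compounds incubated with infected cells for about four days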
[9] = T. b. rhodesiense proliferation inhibition, dose response, STIB900 strain, plate reader, cherry pick (AID 651893); assay type: functional, cell-based; conditions: Trypanosoma brucei
[10] = T. cruzi intracellular amastigote growth inhibition, dose response, imaging, CA-I/72 strain, bovine embryo skeletal muscle, dry powder (AID 651885); assay type: functional, cell-based
[11] = miR-122 activators in hepatoma reporter cells, dose response, cell-based, Huh7 psiCHECK-miR122, Renilla luciferase, cherry-picked (AID 651956); assay type: functional;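 also: huh7 hepatoma cells stably carrying a psiCHECK-2 miR-122 sensor plasmid; renilla luciferase signal reporting endogenous miR-122 activity after 48 h compound exposure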
[12] = HepG2 cell cytotoxicity, dose response, cytotoxicity control, cherry-picks, set 5 (AID 1053118); assay type: functional, cell-based
[13] = HEK293T cytotoxicity, dose response, cytotoxicity control for miR-122 modulator project, cell-based, activator set, cherry-pick (AID 720690); assay type: functional;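 also: HEK293T human cells scored for general mammalian cytotoxicity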
[14] = HEK293 cell cytotoxicity, dose response, cytotoxicity control, cherry-picks, set 5 (AID 1053117); assay type: functional, cell-based
[15] = LMP1-driven NF-kB reporter inhibition, dose response, cell-based, luciferase reporter, luminescence, dry powder, set 2 (AID 624376); assay type: functional
[16] = T. cruzi growth inhibition in host cells, dose response, cell-based, plate reader, dry powder, set 2 (AID 652275); assay type: functional
[17] = molecular target: Disintegrin and metalloproteinase domain-containing protein 17 (Homo sapiens, UniProt P78536); test: exosite inhibitors of ADAM17, dose response, biochemical (AID 743260)
[18] = ADAM10 protease inhibitors, dose response, selectivity assay for ADAM17 exosite inhibitor project, biochemical, FRET peptide substrate, recombinant human ADAM10 (AID 743259);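 also: ADAM10 enzyme cleaving a FRET peptide substrate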
fMet-Leu-Phe receptor = fMet-Leu-Phe receptor (Homo sapiens, UniProt P21462); test: FPR ligands, dose response (AID 519); assay type: functional
Chain of fMet-Leu-Phe receptor (P21462 whole entry): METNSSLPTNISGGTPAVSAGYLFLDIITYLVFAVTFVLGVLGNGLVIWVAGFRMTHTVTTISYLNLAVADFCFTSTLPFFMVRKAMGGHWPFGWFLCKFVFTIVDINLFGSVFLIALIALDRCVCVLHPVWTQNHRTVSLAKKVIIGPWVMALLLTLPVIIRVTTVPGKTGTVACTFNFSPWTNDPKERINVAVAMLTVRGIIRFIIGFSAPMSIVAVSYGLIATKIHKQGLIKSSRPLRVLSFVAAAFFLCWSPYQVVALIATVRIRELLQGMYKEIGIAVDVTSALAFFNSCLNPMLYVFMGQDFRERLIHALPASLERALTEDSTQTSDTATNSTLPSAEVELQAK

Chain of Disintegrin and metalloproteinase domain-containing protein 17 (P78536 whole entry, the tested form may be a part): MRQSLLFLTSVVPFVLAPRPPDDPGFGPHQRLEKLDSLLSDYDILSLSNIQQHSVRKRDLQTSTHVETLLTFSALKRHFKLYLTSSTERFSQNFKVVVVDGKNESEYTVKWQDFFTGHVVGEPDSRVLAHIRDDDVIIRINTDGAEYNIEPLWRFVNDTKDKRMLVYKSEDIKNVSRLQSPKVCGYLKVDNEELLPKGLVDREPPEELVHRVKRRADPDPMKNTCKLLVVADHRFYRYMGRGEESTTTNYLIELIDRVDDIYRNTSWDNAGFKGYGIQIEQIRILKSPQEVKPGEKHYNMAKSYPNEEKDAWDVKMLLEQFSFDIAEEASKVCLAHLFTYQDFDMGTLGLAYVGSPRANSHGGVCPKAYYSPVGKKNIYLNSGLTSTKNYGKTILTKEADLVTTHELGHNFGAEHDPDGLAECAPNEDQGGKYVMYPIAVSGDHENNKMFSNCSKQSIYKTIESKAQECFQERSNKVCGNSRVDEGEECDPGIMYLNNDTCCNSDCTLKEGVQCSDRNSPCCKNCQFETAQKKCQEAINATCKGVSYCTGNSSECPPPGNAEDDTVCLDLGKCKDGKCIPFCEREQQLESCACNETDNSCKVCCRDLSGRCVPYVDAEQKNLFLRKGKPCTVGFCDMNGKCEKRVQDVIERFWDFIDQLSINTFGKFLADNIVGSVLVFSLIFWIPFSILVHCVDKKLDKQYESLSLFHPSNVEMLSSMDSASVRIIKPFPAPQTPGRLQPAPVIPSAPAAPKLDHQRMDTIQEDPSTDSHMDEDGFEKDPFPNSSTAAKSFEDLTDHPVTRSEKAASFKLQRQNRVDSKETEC

SMILES: O=C(NCc1ccccc1)c1ccc(-c2cn[nH]c2)c2ccoc12
AC50 [1]: > 52 µM (inactive)
AC50 [2]: 0.142 µM (active)

SMILES: C[C@@H]1CN([C@@H](C)CO)C(=O)c2cccc(NC(=O)c3ccncc3)c2O[C@H]1CN(C)Cc1ccc(-c2ccccc2)cc1
IC50 [3]: 1.2 µM (active)
IC50 [4]: 13.5 µM (active)
IC50 [5]: 1.2 µM (active)
IC50 [6]: 13.3 µM (inactive)
AC50 [7]: 21.9 µM (active)
AC50 [8]: 0.08 µM (active)
IC50 [9]: 0.729 µM (active)
IC50 [10]: 0.146 µM (active)

SMILES: CO[C@@H]1CN(C)C(=O)c2cc(NC(=O)Nc3cc(Cl)cc(Cl)c3)ccc2OC[C@H](C)NC[C@H]1C
AC50 [11]: 10.1 µM (active)
AC50 [12]: 10.9 µM (active)
AC50 [13]: 17.6 µM (active)
AC50 [14]: 12.8 µM (active)
AC50 [2]: 29 µM (active)

SMILES: C[C@@H](NC(=O)C[C@H]1C=C[C@@H](NC(=O)Cc2ccccn2)[C@H](CO)O1)c1ccccc1
AbsAC35 [15]: 52.1 µM

SMILES: C[C@H]1CN([C@@H](C)CO)C(=O)c2cccc(NC(=O)c3ccncc3)c2O[C@@H]1CN(C)Cc1ccccc1Cl
AC50 [16]: 0.165 µM (active)

IC50 [17]: > 69.5 µM (inactive)
SMILES: CCOc1ccc(CNC(=S)N/N=C/c2ccc(OC)c(OC)c2)cc1
IC50 [18]: > 69.5 µM (inactive)

Ki (fMet-Leu-Phe receptor): > 66.7 µM (inactive)
SMILES: CCN(CCCc1ccccc1)CCCc1ccccc1 [ALVERINE CITRATE]
